Experimental data reported in article PMC13210772, “Dual FLT3/MAPK14 Proteolysis-Targeting Chimera (PROTAC) Induces Potent Acute Myeloid Leukemia Cell Death” (Pharmaceuticals, 2026).

Assays:
Assay in all cases: NanoBRET CELLinib128
Format in all cases: binding
AURKA = target: T1, AURKA (Homo sapiens, UniProt O14965); details: 100% no effect, 0% complete tracer displacement, read-out: Tracer bound
T1 construct: Full-length kinase ORF (Promega, Madison, WI, USA) cloned in frame with a NanoLuc-vector was transfected into HEK293T cells; host or cells: HEK293T
Description: (§1) To get an impression about the binding strength of the PROTAC MA191 and the reference inhibitor MA68 to other kinases besides FLT3-ITD the binding on a kinase panel of further 128 representative protein kinases at 1 μM concentration was tested using the NanoBRET^TM cellular target engagement assay (CELLinib128 assay, CELLinib GmbH, Frankfurt, Germany). […] In none of the 128 kinases MA191 was able to displace the tracer (inhibitor) used by more than 50%, Table S1, Supplementary Information).
(§2) The CELLinib128 assay was performed by CELLinib GmbH, Frankfurt (Germany) as described previously. In brief: Full-length kinase ORF (Promega, Madison, WI, USA) cloned in frame with a NanoLuc-vector was transfected into HEK293T cells in Opti-MEM without phenol red (Life Technologies, Carlsbad, CA, USA) at a density of 2 × 10^5 cells/mL using FuGENE HD (Promega, E2312) and proteins were allowed to express for 20 h. For CDKs, where indicated below, an excess of an activator without an NLuc-fusion was cotransfected. […] The system was allowed to equilibrate at 37 °C for 2 h and 5% CO2 prior to BRET measurements. For PKCs, a chemical activator PMA was added in a final concentration of 1 µM was added together with test compounds and tracers (Promega, V1171). To measure BRET, NanoBRET^TM NanoGlo substrate + extracellular NanoLuc inhibitor (Promega, N2160) were added as per the manufacturer’s protocol, and filtered luminescence was measured (450 nm BP filter (donor) and 610 nm LP filter (acceptor)). For the 1-shot test compounds, data were normalized to the tracer control and the background control or control compound plateau and an average and SD were calculated. […] For the control compounds competitive displacement data were normalized to the tracer Ctrl and the background Ctrl and then plotted and fitted using GraphPad Prism 10 software using a normalized 3-parameter curve fit with the following equation: Y = 100/(1 + 10^X−LogIC50).

NUAK1 = target: T2, NUAK1 (Homo sapiens, UniProt O60285); details: 1 µM; 100% no effect, 0% complete tracer displacement
T2 construct: Full-length kinase ORF (Promega, Madison, WI, USA) cloned in frame with a NanoLuc-vector was transfected into HEK293T cells; host or cells: HEK293T
Description: as §1, §2

MAP4K5 = target: T3, MAP4K5 (Homo sapiens, UniProt Q9Y4K4); details: 100% no effect, 0% complete tracer displacement, read-out: Tracer bound
T3 construct: Full-length kinase ORF (Promega, Madison, WI, USA) cloned in frame with a NanoLuc-vector was transfected into HEK293T cells; host or cells: HEK293T
Description: as §1, §2

MLTK = target: T4, MLTK (Homo sapiens, UniProt Q9NYL2); details: 100% no effect, 0% complete tracer displacement, read-out: Tracer bound
T4 construct: Full-length kinase ORF (Promega, Madison, WI, USA) cloned in frame with a NanoLuc-vector was transfected into HEK293T cells; host or cells: HEK293T
Description: as §1, §2

BTK = target: T5, BTK (Homo sapiens, UniProt Q06187); details: 1 µM; 100% no effect, 0% complete tracer displacement
T5 construct: Full-length kinase ORF (Promega, Madison, WI, USA) cloned in frame with a NanoLuc-vector was transfected into HEK293T cells; host or cells: HEK293T
Description: as §1, §2

CDK14-CCNY = target: T6, CDK14-CCNY (Homo sapiens, UniProt O94921); details: 1 µM; 100% no effect, 0% complete tracer displacement
T6 construct: Full-length kinase ORF (Promega, Madison, WI, USA) cloned in frame with a NanoLuc-vector was transfected into HEK293T cells; host or cells: HEK293T
Description: as §1, §2

TNK2 = target: T7, TNK2 (Homo sapiens, UniProt Q07912); details: 100% no effect, 0% complete tracer displacement, read-out: Tracer bound
T7 construct: Full-length kinase ORF (Promega, Madison, WI, USA) cloned in frame with a NanoLuc-vector; host or cells: HEK293T
Description: as §1, §2

MAP4K3 = target: T8, MAP4K3 (Homo sapiens, UniProt Q8IVH8); details: 1 µM; 100% no effect, 0% complete tracer displacement
T8 construct: Full-length kinase ORF (Promega, Madison, WI, USA) cloned in frame with a NanoLuc-vector was transfected into HEK293T cells; host or cells: HEK293T
Description: as §1, §2

IRAK4 = target: T9, IRAK4 (Homo sapiens, UniProt Q9NWZ3); details: 1 µM; 100% no effect, 0% complete tracer displacement
T9 construct: Full-length kinase ORF (Promega, Madison, WI, USA) cloned in frame with a NanoLuc-vector was transfected into HEK293T cells; host or cells: HEK293T
Description: as §1, §2

PAK6 = target: T10, PAK6 (Homo sapiens, UniProt Q9NQU5); details: 100% no effect, 0% complete tracer displacement, read-out: Tracer bound
T10 construct: Full-length kinase ORF (Promega, Madison, WI, USA) cloned in frame with a NanoLuc-vector was transfected into HEK293T cells; host or cells: HEK293T
Description: as §1, §2

PRKAA2 = target: T11, PRKAA2 (Homo sapiens, UniProt P54646); details: 100% no effect, 0% complete tracer displacement, read-out: Tracer bound
T11 construct: Full-length kinase ORF (Promega, Madison, WI, USA) cloned in frame with a NanoLuc-vector was transfected into HEK293T cells; host or cells: HEK293T
Description: as §1, §2

CSNK2A2 = target: T12, CSNK2A2 (Homo sapiens, UniProt P19784); details: 100% no effect, 0% complete tracer displacement, read-out: Tracer bound
T12 construct: Full-length kinase ORF (Promega, Madison, WI, USA) cloned in frame with a NanoLuc-vector was transfected into HEK293T cells; host or cells: HEK293T
Description: as §1, §2

CDK20-CCNH = target: T13, CDK20-CCNH (Homo sapiens, UniProt Q8IZL9); details: 100% no effect, 0% complete tracer displacement, read-out: Tracer bound
T13 construct: Full-length kinase ORF (Promega, Madison, WI, USA) cloned in frame with a NanoLuc-vector was transfected into HEK293T cells; host or cells: HEK293T
Description: as §1, §2

MAP4K2 = target: T14, MAP4K2 (Homo sapiens, UniProt Q12851); details: 100% no effect, 0% complete tracer displacement, read-out: Tracer bound
T14 construct: Full-length kinase ORF (Promega, Madison, WI, USA) cloned in frame with a NanoLuc-vector was transfected into HEK293T cells; host or cells: HEK293T
Description: as §1, §2

CDK3-CCNE1 = target: T15, CDK3-CCNE1 (Homo sapiens, UniProt Q00526); details: 1 µM; 100% no effect, 0% complete tracer displacement
T15 construct: Full-length kinase ORF (Promega, Madison, WI, USA) cloned in frame with a NanoLuc-vector was transfected into HEK293T cells; host or cells: HEK293T
Description: as §1, §2

RPS6KA1 = target: T16, RPS6KA1 (Homo sapiens, UniProt Q15418); details: 100% no effect, 0% complete tracer displacement, read-out: Tracer bound
T16 construct: Full-length kinase ORF (Promega, Madison, WI, USA) cloned in frame with a NanoLuc-vector was transfected into HEK293T cells; host or cells: HEK293T
Description: as §1, §2

RIOK2 = target: T17, RIOK2 (Homo sapiens, UniProt Q9BVS4); details: 100% no effect, 0% complete tracer displacement, read-out: Tracer bound
T17 construct: Full-length kinase ORF (Promega, Madison, WI, USA) cloned in frame with a NanoLuc-vector was transfected into HEK293T cells; host or cells: HEK293T
Description: as §1, §2

STK38L = target: T18, STK38L (Homo sapiens, UniProt Q9Y2H1); details: 100% no effect, 0% complete tracer displacement, read-out: Tracer bound
T18 construct: Full-length kinase ORF (Promega, Madison, WI, USA) cloned in frame with a NanoLuc-vector was transfected into HEK293T cells; host or cells: HEK293T
Description: as §1, §2

STK4 = target: T19, STK4 (Homo sapiens, UniProt Q13043); details: 1 µM; 100% no effect, 0% complete tracer displacement
T19 construct: Full-length kinase ORF (Promega, Madison, WI, USA) cloned in frame with a NanoLuc-vector was transfected into HEK293T cells; host or cells: HEK293T
Description: as §1, §2

TBK1 = target: T20, TBK1 (Homo sapiens, UniProt Q9UHD2); details: 100% no effect, 0% complete tracer displacement, read-out: Tracer bound
T20 construct: Full-length kinase ORF (Promega, Madison, WI, USA) cloned in frame with a NanoLuc-vector was transfected into HEK293T cells; host or cells: HEK293T
Description: as §1, §2

PRKCQ-PMA = target: T21, PRKCQ-PMA (Homo sapiens, UniProt Q04759); details: 100% no effect, 0% complete tracer displacement, read-out: Tracer bound
T21 construct: Full-length kinase ORF (Promega, Madison, WI, USA) cloned in frame with a NanoLuc-vector was transfected into HEK293T cells; host or cells: HEK293T
Description: as §1, §2

MUSK = target: T22, MUSK (Homo sapiens, UniProt O15146); details: 100% no effect, 0% complete tracer displacement, read-out: Tracer bound
T22 construct: Full-length kinase ORF (Promega, Madison, WI, USA) cloned in frame with a NanoLuc-vector was transfected into HEK293T cells; host or cells: HEK293T
Description: as §1, §2

CDK18-CCNY = target: T23, CDK18-CCNY (Homo sapiens, UniProt Q07002); details: 100% no effect, 0% complete tracer displacement, read-out: Tracer bound
T23 construct: Full-length kinase ORF (Promega, Madison, WI, USA) cloned in frame with a NanoLuc-vector was transfected into HEK293T cells; host or cells: HEK293T
Description: as §1, §2

CDK17-CCNY = target: T24, CDK17-CCNY (Homo sapiens, UniProt Q00537); details: 100% no effect, 0% complete tracer displacement, read-out: Tracer bound
T24 construct: Full-length kinase ORF (Promega, Madison, WI, USA) cloned in frame with a NanoLuc-vector was transfected into HEK293T cells; host or cells: HEK293T
Description: as §1, §2

CHEK2 = target: T25, CHEK2 (Homo sapiens, UniProt O96017); details: 100% no effect, 0% complete tracer displacement, read-out: Tracer bound
T25 construct: Full-length kinase ORF (Promega, Madison, WI, USA) cloned in frame with a NanoLuc-vector was transfected into HEK293T cells; host or cells: HEK293T
Description: as §1, §2

TNNI3K = target: T26, TNNI3K (Homo sapiens, UniProt Q59H18); details: 100% no effect, 0% complete tracer displacement, read-out: Tracer bound
T26 construct: Full-length kinase ORF (Promega, Madison, WI, USA) cloned in frame with a NanoLuc-vector; host or cells: HEK293T
Description: as §1, §2

TEK = target: T27, TEK (Homo sapiens, UniProt Q02763); details: 100% no effect, 0% complete tracer displacement, read-out: Tracer bound
T27 construct: Full-length kinase ORF (Promega, Madison, WI, USA) cloned in frame with a NanoLuc-vector was transfected into HEK293T cells; host or cells: HEK293T
Description: as §1, §2

NEK3 = target: T28, NEK3 (Homo sapiens, UniProt P51956); details: 100% no effect, 0% complete tracer displacement, read-out: Tracer bound
T28 construct: Full-length kinase ORF (Promega, Madison, WI, USA) cloned in frame with a NanoLuc-vector was transfected into HEK293T cells; host or cells: HEK293T
Description: as §1, §2

PRKACB = target: T29, PRKACB (Homo sapiens, UniProt P22694); details: 100% no effect, 0% complete tracer displacement, read-out: Tracer bound
T29 construct: Full-length kinase ORF (Promega, Madison, WI, USA) cloned in frame with a NanoLuc-vector was transfected into HEK293T cells; host or cells: HEK293T
Description: as §1, §2

PRKAA1 = target: T30, PRKAA1 (Homo sapiens, UniProt Q13131); details: 100% no effect, 0% complete tracer displacement, read-out: Tracer bound
T30 construct: Full-length kinase ORF (Promega, Madison, WI, USA) cloned in frame with a NanoLuc-vector was transfected into HEK293T cells; host or cells: HEK293T
Description: as §1, §2

T24 sequence (Q00537 whole entry): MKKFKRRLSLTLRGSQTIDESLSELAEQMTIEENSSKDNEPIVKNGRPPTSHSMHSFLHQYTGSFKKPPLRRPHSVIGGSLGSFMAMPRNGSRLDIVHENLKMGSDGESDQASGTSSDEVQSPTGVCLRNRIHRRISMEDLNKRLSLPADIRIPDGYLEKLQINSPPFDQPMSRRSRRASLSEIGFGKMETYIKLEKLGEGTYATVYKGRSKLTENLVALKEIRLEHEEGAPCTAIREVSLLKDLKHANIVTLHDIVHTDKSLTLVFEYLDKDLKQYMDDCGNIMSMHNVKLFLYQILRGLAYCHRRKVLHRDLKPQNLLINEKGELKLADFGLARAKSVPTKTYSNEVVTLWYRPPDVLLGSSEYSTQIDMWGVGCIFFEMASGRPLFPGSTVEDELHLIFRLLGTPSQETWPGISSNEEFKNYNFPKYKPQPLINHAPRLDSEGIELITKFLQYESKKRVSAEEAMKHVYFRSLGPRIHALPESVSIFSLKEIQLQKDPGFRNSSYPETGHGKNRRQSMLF
T24 sequence (Q8ND76 whole entry partner): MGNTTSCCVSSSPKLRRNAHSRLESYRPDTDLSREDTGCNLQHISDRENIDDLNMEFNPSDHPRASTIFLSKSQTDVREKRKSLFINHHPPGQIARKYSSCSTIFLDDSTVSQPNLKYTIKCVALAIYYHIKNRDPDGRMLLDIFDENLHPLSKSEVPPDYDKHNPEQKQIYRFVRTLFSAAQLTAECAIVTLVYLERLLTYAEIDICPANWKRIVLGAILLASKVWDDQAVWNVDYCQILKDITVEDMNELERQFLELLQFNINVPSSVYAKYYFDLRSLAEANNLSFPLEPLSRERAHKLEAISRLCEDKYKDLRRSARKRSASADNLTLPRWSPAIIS
T18 sequence (Q9Y2H1 whole entry): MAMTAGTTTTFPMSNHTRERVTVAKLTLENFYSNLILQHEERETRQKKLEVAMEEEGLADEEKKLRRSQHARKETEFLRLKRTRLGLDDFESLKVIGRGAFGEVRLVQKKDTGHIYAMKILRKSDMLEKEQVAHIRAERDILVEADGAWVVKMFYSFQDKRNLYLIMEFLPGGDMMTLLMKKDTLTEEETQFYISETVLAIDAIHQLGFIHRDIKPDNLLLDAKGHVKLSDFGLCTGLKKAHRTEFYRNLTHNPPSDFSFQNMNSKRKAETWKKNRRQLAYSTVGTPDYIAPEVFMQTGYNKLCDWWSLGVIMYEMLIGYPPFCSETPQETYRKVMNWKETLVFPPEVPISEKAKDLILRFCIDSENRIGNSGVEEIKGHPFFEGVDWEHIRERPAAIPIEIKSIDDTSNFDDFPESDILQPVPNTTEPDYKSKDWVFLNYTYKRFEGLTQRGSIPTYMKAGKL
T5 sequence (Q06187 whole entry): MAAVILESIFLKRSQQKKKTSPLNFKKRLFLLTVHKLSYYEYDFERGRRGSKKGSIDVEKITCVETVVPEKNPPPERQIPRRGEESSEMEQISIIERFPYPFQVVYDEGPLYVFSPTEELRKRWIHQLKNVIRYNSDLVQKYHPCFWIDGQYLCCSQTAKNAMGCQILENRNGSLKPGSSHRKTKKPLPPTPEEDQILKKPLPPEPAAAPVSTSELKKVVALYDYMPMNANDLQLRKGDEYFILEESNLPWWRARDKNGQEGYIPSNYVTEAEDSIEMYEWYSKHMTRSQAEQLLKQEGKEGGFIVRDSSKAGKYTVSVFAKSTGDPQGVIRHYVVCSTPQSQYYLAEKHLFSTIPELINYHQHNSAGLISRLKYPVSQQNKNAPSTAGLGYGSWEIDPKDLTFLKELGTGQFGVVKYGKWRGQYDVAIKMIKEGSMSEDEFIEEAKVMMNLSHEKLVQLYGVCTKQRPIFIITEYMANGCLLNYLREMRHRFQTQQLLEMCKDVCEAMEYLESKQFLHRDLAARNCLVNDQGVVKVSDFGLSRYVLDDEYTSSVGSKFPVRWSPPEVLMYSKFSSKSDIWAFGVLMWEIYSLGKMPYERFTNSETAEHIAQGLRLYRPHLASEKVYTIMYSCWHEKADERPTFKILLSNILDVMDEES
T1 sequence (O14965 whole entry): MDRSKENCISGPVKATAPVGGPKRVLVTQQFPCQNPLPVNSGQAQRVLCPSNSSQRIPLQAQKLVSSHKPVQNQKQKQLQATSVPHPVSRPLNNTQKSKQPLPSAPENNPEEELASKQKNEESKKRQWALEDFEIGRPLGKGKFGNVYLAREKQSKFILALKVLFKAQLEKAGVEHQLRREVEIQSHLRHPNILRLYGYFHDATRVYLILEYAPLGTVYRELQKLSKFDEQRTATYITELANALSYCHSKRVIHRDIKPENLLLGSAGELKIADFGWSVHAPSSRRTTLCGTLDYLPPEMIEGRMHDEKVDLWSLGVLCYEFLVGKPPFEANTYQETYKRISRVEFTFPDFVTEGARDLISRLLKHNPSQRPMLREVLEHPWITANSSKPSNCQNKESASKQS
T16 sequence (Q15418 whole entry): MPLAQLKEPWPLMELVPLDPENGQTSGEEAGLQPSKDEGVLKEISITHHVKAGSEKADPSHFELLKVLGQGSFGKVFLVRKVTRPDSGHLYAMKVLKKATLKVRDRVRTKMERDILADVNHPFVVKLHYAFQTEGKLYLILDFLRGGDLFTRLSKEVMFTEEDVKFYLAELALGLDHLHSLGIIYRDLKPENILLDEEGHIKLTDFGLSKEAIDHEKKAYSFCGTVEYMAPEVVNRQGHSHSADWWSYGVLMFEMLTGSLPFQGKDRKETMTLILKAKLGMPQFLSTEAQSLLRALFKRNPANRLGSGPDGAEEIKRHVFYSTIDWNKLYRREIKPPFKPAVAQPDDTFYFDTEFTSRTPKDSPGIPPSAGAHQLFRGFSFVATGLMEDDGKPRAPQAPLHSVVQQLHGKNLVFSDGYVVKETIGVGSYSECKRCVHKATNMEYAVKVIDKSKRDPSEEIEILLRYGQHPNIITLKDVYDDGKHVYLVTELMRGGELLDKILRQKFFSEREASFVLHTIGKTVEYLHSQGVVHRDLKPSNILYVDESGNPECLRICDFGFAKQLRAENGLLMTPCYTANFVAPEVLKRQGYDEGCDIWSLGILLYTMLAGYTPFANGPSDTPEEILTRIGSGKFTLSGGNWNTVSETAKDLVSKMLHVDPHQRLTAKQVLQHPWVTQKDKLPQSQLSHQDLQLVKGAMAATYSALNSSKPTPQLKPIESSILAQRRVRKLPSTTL
T2 sequence (O60285 whole entry): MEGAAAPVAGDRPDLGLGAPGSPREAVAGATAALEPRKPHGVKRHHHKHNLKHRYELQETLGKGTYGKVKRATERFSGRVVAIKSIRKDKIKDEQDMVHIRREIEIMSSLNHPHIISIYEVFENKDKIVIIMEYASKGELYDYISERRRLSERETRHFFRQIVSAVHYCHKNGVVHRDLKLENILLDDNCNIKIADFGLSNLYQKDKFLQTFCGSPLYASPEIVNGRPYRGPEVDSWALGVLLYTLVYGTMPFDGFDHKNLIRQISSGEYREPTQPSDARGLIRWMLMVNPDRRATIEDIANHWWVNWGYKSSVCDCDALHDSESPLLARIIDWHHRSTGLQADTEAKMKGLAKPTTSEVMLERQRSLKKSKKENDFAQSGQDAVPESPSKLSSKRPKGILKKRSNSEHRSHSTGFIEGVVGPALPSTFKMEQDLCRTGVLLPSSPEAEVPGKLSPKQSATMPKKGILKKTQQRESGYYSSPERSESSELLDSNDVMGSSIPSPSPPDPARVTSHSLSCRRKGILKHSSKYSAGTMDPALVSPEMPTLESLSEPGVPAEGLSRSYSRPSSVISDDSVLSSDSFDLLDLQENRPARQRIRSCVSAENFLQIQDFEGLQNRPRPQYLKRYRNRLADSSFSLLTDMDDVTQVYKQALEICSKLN
T22 sequence (O15146 24-869): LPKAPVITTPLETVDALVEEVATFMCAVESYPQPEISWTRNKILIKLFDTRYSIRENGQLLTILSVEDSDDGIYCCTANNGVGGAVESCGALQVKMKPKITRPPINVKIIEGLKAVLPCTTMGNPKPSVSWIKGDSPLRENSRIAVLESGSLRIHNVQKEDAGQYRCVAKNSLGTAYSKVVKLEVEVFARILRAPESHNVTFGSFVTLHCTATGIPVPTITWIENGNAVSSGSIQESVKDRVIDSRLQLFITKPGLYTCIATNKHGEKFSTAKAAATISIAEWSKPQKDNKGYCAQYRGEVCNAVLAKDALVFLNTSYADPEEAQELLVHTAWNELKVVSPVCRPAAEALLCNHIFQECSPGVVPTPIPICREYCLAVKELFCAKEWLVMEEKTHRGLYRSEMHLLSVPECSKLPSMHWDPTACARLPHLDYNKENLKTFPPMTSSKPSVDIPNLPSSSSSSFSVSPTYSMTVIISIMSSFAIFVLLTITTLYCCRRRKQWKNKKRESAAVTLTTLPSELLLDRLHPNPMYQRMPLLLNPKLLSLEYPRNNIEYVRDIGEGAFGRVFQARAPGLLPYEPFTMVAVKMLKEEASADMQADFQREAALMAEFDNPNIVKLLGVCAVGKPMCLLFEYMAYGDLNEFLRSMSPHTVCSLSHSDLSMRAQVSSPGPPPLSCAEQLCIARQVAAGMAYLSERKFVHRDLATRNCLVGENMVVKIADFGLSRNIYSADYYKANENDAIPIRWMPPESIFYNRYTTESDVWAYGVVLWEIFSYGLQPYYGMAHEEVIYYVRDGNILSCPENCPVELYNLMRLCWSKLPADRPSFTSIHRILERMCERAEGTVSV
T12 sequence (P19784 whole entry): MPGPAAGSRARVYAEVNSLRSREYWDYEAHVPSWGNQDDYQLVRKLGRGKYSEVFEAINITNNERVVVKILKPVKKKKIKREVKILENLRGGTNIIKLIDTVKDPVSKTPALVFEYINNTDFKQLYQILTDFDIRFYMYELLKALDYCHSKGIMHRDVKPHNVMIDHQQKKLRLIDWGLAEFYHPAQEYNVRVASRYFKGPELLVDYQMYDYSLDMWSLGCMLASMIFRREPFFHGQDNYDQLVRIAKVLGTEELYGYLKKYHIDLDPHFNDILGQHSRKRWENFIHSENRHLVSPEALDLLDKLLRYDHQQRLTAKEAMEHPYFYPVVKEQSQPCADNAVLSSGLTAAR

remaining activity at 1 µM (AURKA): 120%
Tracer bound (NUAK1): 120.0%
remaining activity at 1 µM (MAP4K5): 94%
remaining activity at 1 µM (MLTK): 54.8%
Tracer bound (BTK): 120.0%
Tracer bound (CDK14-CCNY): 95.7%
remaining activity at 1 µM (TNK2): 118%
Tracer bound (MAP4K3): 91.1%
Tracer bound (IRAK4): 114.7%
remaining activity at 1 µM (PAK6): 120%
remaining activity at 1 µM (PRKAA2): 119%
remaining activity at 1 µM (CSNK2A2): 114%
remaining activity at 1 µM (CDK20-CCNH): 108%
remaining activity at 1 µM (MAP4K2): 107%
Tracer bound (CDK3-CCNE1): 117.0%
remaining activity at 1 µM (RPS6KA1): 110%
remaining activity at 1 µM (RIOK2): 115%
remaining activity at 1 µM (STK38L): 90%
Tracer bound (STK4): 102.0%
remaining activity at 1 µM (TBK1): 108%
remaining activity at 1 µM (PRKCQ-PMA): 104%
remaining activity at 1 µM (MUSK): 66%
remaining activity at 1 µM (CDK18-CCNY): 95.9%
remaining activity at 1 µM (CDK17-CCNY): 81.3%
remaining activity at 1 µM (CHEK2): 111%
remaining activity at 1 µM (TNNI3K): 83.2%
remaining activity at 1 µM (TEK): 85.7%
remaining activity at 1 µM (NEK3): 100%
remaining activity at 1 µM (PRKACB): 106%
remaining activity at 1 µM (PRKAA1): 110%
SMILES: Cc1ncsc1-c1ccc([C@H](C)NC(=O)[C@@H]2C[C@@H](O)CN2C(=O)[C@@H](NC(=O)[C@H]2CC[C@H](C(=O)N3CCN(CCNC(=O)c4cc(Oc5ccc(NC(=O)Nc6cc(C(C)(C)C)on6)cc5)ccn4)CC3)CC2)C(C)(C)C)cc1 [MA191, 4-(4-(3-(5-(tert-Butyl)isoxazol-3-yl)ureido)phenoxy)-N-(2-(4-(trans-4-(((S)-1-((2S,4R)-4-hydroxy-2-(((S)-1-(4-(4-methylthiazol-5-yl)phenyl)ethyl)carbamoyl)pyrrolidin-1-yl)-3,3-dimethyl-1-oxobutan-2-yl)carbamoyl)cyclohexanecarbonyl)piperazin-1-yl)ethyl)picolinamide]
